# Entries after “also recorded” stand apart in the source; their conditions may differ.
# Tests used:
# [1] = test system: iPLA2β; experiment: ESI/MS quantification of fatty acid release into effluent and accumulation of fatty acids and lysolipids in ischemic zones of Langendorf perfused hearts; parameters: species or system mouse; conditions: hearts from transgenic mice, 15 min LAD occlusion, BEL pretreatment
# Description: A, Nonesterified fatty acid (NEFA) release obtained from 15 in of effluent from control or ischemic Langendorf hearts. *P<0.001 B, NEFA mass in ischemic heart tissue from WT and TGiPLA2β hearts. *P<0.01. C, Lysophosphatidylcholine (LPC) mass in ischemic tissue from WT and TGiPLA2β hearts. *P<0.0001. Release of NEFA into the effluents (a) and accumulation of NEFA (b) and LPC (c) in ischemic tissue from Langendorf-perfused hearts [WT (light bars) and TGiPLA2β (dark bars)] were measured in the absence or presence of LAD occlusion (ischemia) in the absence (−) or presence […] of BEL pretreatment as indicated.
# To determine if ischemia activates iPLA2β catalyzed hydrolysis of lipids in intact myocardium, ESI/MS (electrospray—mass spectrometry) was utilized to quantify the release of fatty acids into the effluent and the accumulation of fatty acids and lysolipids in ischemic zones^19,20. After 15 min of LAD occlusion, increased release of fatty acids was present in the effluents from perfused hearts and both fatty acids and lysolipids accumulated in the ischemic zone of hearts from TG iPLA2β mice but not WT mice (FIG. 3a). […] The concurrent activation of iPLA2β during ischemia in conjunction with the generation of malignant ventricular arrhythmias and their rescue by inhibition of the expressed iPLA2β transgene formally fulfills traditional criteria for proof of a cause and effect relationship between two phenomena (i.e., malignant arrhythmias are not present when virtually no iPLA2β activity is present (WT mice) and malignant arrhythmias are manifest during activation of the expressed iPLA2β transgene by ischemia and arrhythmias are ablated by mechanism-based inhibition of expressed iPLA2β enzymic activity).
# Electrospray Ionization Mass Spectrometry of Lipids from Wild type and Transgenic Mouse Myocardium. Lipids were extracted from mouse myocardium (˜50 mg) by a modified Bligh and Dyer technique utilizing 50 mM LiCl in the aqueous layer in the presence of internal standards selected based on their lack of demonstrable endogenous molecular ions in that region^19,20. ESI/MS analysis was performed utilizing a Finnigan TSQ-7000 Spectrometer as previously described^19,20.
# [2] = target: T1, iPLA2β (Homo sapiens, UniProt O60733); conditions: racemic BEL; cited from earlier work
# T1 sequence (O60733 1-806): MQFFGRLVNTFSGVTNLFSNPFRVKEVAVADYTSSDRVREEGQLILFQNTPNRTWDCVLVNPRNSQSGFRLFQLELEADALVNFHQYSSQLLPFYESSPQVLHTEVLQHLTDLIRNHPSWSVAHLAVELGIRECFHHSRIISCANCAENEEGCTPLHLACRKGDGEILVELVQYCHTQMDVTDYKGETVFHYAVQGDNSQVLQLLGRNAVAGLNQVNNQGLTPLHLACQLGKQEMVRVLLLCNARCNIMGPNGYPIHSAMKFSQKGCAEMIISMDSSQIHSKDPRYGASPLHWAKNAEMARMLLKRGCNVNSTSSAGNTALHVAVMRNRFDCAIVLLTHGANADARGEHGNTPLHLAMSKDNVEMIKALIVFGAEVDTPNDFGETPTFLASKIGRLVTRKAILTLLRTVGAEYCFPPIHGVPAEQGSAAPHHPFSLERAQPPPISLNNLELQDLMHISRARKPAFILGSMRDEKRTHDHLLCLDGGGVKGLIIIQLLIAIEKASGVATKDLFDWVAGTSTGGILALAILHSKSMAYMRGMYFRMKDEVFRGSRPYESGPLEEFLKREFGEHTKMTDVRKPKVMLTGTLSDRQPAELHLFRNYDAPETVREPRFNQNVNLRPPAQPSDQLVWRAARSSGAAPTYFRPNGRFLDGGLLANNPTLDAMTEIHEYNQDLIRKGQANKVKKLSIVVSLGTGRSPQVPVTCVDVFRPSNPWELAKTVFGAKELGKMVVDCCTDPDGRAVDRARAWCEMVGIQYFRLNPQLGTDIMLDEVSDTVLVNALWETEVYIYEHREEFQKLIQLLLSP
# [3] = target: T2, iPLA2γ (Homo sapiens, UniProt Q9NP80); conditions: racemic BEL; cited from earlier work
# T2 sequence (Q9NP80 1-782): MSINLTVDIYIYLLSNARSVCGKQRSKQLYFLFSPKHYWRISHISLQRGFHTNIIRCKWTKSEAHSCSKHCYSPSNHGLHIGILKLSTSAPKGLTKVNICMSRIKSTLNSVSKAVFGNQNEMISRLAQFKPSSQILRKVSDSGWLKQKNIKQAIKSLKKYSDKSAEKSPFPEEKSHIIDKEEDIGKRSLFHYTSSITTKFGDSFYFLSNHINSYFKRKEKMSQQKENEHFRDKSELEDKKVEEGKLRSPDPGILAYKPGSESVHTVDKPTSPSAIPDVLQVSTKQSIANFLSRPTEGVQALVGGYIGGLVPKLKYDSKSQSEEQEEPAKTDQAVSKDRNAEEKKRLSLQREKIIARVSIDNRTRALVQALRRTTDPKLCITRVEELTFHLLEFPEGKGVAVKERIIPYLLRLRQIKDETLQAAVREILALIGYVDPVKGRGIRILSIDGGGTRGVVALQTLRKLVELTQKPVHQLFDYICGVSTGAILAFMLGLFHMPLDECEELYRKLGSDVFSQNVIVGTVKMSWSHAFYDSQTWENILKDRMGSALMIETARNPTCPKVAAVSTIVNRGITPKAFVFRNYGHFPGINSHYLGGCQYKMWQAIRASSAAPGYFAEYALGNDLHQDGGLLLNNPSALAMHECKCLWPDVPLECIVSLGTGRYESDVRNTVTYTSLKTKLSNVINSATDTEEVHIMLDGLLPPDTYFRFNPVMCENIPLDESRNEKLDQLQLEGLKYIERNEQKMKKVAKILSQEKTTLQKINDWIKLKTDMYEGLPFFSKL
# [4] = test system: Langendorf-perfused mouse hearts; experiment: Ischemia-induced ventricular arrhythmias (PVCs, VT) after LAD coronary ligation in isolated Langendorf-perfused mouse hearts; conditions: for frequency of PVCs (PVC frequency/5 min interval) after coronary ligation: BEL 10 μM pretreatment from 5 min before ligation, 30 min ischemia
# Description: Data are presented as the +/− standard deviation. A, frequency of PVCs in wild type control mouse hearts (open bars, n=19) and in TGiPLA2β transgenic mouse hearts (closed bars, n=24) in the absence of BEL pretreatment (−BEL). Total PVCs were recorded in 5 minute intervals (0–5, 5–10, 10–15, 15–20, 20–25, and 25–30 min) after ligation of the LAD coronary artery in TGiPLA2β and wild-type control Langendorf hearts. The mean PVC frequency per interval (PVC frequency/5 min interval) was then plotted vs time interval after coronary ligation. […] B, The effect of BEL pretreatment (+BEL) on PVC frequency measured in 5 min intervals after coronary litigation. […] C, Frequency histogram showing total episodes of VT in TGiPLA2β transgenics (closed bars, n=24) vs wild-type control hearts (open bars, n=19) with (+) and without (−) BEL pretreatment.
# To determine the role of iPLA2β in arrhythmogenesis during acute cardiac ischemia, a Langendorf perfused heart preparation was employed^6. […] The frequency of spontaneous PVCs was higher in hearts expressing iPLA2β compared with controls at each 5 minute time interval examined during 30 minutes of ischemia (p=0.0003 vs WT by MANOVA) (FIG. 4). Multiple episodes of non-sustained VT occurred in TGiPLA2β hearts (9 of 24 hearts) compared with a single episode in one WT heart (1 of 19 hearts) (p=0.002).
# Isolated perfused mouse heart preparations were utilized as previously referenced (1). Briefly, a traditionally accepted ex vivo intact model of acute ischemia was studied. The left anterior descending (LAD) coronary artery was occluded in isolated perfused hearts. Mice were anesthetized with sodium pentobarbital (150 mg/kg IP), and their hearts were rapidly excised and placed in oxygenated Krebs-Henseleit buffer containing (in mmol/L): NaCl 118.3, KCl 2.7, MgSO4 1.0, KH2PO4 1.4, NaHCO3 29.0, CaCl2 3.4, and glucose 10, plus insulin 70 mU/L and BSA 2.8%, at 37° C. Hearts were perfused by retrograde aortic flow with oxygenated buffer at 37° C. Flow rates were adjusted to maintain constant perfusion pressures of 45 to 50 mm Hg. Hearts were simultaneously superfused in a bath containing oxygenated buffer at 37° C. to maintain constant temperature.(1) Circulation 101:547–552 (2000).
# Ischemic Studies with Isolated Langendorf-Perfused Mouse Hearts. Ventricular tachyarrhythmias induced by acute ischemia were characterized with use of an isolated, Langendorf-perfused heart preparation as described previously by Lerner et al^6 which is incorporated herein in its entirety by reference. Frequencies of spontaneous arrhythmias (PVCs, and episodes of VT) were counted for 30 min after coronary ligation and tablulated as PVC frequency per 5 minute intervals. A run of ventricular tachycardia was defined as 10 or more beats with a cycle length <100 msec. After 30 min, hearts were perfused through the aortic catheter with 1% Evans blue dye. To determine the effects of BEL on induction of arrhythmias after ischemia, hearts were perfused with buffer containing 10 μM BEL beginning 5 min before coronary ligation and during ischemia. All studies were randomized and blinded.
# [5] = test system: iPLA2β; experiment: Acylcarnitine content of ischemic zone of Langendorf perfused hearts by ESI mass spectrometry; parameters: species or system mouse; conditions: BEL 10 uM for 5 min, 15 min ischemia
# Description: The ischemia-induced increase in acylcarnitines in wild type mice is inhibited by BEL. Moreover, iPLA2β transgenic mice sustain a dramatic increase in acylcarnitine content during myocardial ischemia in comparison to wild type mice.
# Next, ischemia was induced by ligating a marginal branch of the LAD coronary artery and ischemia was induced for 15 minutes. Aliquots of the ischemic zone were taken and rapidly frozen. After addition of internal standard, aliquots of frozen tissue were extracted and analyzed for acylcarnitine content by ESI mass spectrometry by comparisons to standard utilizing methods previously described.
# [6] = test system: ischemic myocardium; experiment: Infarct size after ischemia in hearts overexpressing iPLA2β; parameters: species or system mouse; conditions: iPLA2β overexpression, BEL treatment
# Description: Control or iPLA2β transgenic mice were perfused retrograde through the aorta for an equilibration interval prior to the induction of ischemia by ligating the LAD coronary artery. After 15 min. of ischemia the tissue was fixed and the magnitude of infarcted tissue was assessed on a 1 to 5 scale. […] Moreover, the deliberate overexpression of iPLA2β increases infarct size which can be reduced with BEL treatment. Thus the discovery clearly for the first time defines a evidences iPLA2β as a pharmacologic target in any aspect of phospholipase work by discriminating iPLA2β activity from other phospholipases by the traditional pharmacologic criteria of knockdown, inhibition and rescue by inhibition of the species-specific knock down pathophysiology. The evidence is this proof of concept thereby formally provides an intact, functional organ model to test the effect of pharmacologic agents on ischemia induced arrhythmias by inhibition of iPLA2β regulatory networks. […] Collectively, the inventor discovered herein a seminal discovery in that it defines and evidences for the first time in molecular detail a protein target, iPLA2β, for prevention and treatment of ventricular arrhythmias in ischemic zones and identifies a new way to screen for additional targets.
# [7] = test system: ischemic hearts; conditions: previously shown; cited from earlier work
# [8] = listed as phospholipase A2 mechanism-based inhibitor
# [9] = TGiPLA2β hearts, BEL 10 μM pretreatment, LAD ligation
SMILES,accumulation of lysolipids in ischemic zones [1],release of fatty acids [1],"accumulation of lysolipids in ischemic zones [1, 8]","release of fatty acids [1, 8]",inhibition of iPLA2β [2],inhibition of iPLA2γ [3],frequency of PVCs (PVC frequency/5 min interval) after coronary ligation ([4]; TGiPLA2β hearts),"episodes of ventricular tachycardia / malignant ventricular tachyarrhythmias [4, 9]","hearts with VT / hearts studied [4, 9]","episodes of ventricular tachycardia / malignant ventricular tachyarrhythmias ([4]; TGiPLA2β hearts, BEL 10 μM pretreatment, LAD ligation, listed as phospholipase A2 mechanism-based inhibitor)",frequency of PVCs (PVC frequency/5 min interval) after coronary ligation ([4]; WT control hearts),ischemia-induced increase in acylcarnitines ([5]; iPLA2β transgenic hearts),ischemia-induced increase in acylcarnitines ([5]; wild type (control) hearts),infarct size [6],arrhythmias in ischemic hearts [7]
"O=C1O/C(=C/Br)CCC1c1cccc2ccccc12 (stereo not drawn) [BEL, (E)-6-(bromomethylene)-3-(1-naphthalenyl)-2H-tetrahydropyran-2-one]",nearly completely ablated,nearly completely ablated,completely ablated,completely ablated,inhibits,inhibits,inhibited the frequency of PVCs; also recorded: significant decrease in PVC frequency,completely abolished VT; also recorded: rescue of ischemia-induced ventricular tachyarrhythmias; also recorded: significant reduction of VT episodes,0/10,rescued transgenic hearts from malignant ventricular dysrhythmias,inhibited the frequency of PVCs; also recorded: reduced PVC frequency,inhibitable; also recorded: inhibited,major portion of acyl carnitine accumulation is BEL inhibitable; also recorded: inhibited,reduced,
CCOC(=O)[C@@]1(CCCCCCOc2ccc(Cl)cc2)CO1 [Etomoxir],,,,,,,,,,,,,,,inhibit arrhythmias
